COC(=O)Nc1nc2ccc(S(=O)c3ccccc3)cc2[nH]1 (configuration not stated)
solubility (mole fraction)
Settings	278.15 K	283.15 K	288.15 K	293.15 K	298.15 K	303.15 K	308.15 K	313.15 K	318.15 K	323.15 K
in 2-ethoxyethanol	0.00043	0.000518	0.000583	0.000682	0.00079	0.000908	0.00104	0.00118	0.00132	0.00144
in 2-methoxyethanol	0.000687	0.000777	0.000887	0.00104	0.00118	0.00133	0.0015	0.00173	0.00191	0.00215
in 2-propoxyethanol	0.000338	0.000402	0.000476	0.000554	0.000629	0.000727	0.000802	0.0009	0.00103	0.00117
in DMAc	0.00381	0.00471	0.00576	0.00659	0.00821	0.00976	0.0112	0.0125	0.0147	0.017
in DMF	0.00284	0.00329	0.00363	0.00408	0.00454	0.00502	0.00576	0.00632	0.00718	0.00796
in DMSO	–	–	–	0.00925	0.0109	0.012	0.0138	0.0157	0.0175	0.0194
in diglyme	0.00015	0.000174	0.000203	0.000241	0.00028	0.000321	0.000362	0.000406	0.000454	0.000502
in methanol	8.35e-05	9.72e-05	0.00012	0.000148	0.00017	0.000201	0.000242	0.000287	0.000332	0.000389
